Results published in patent publication US6342537B1, “Gel for treatment of skin diseases and for disinfection of the skin” (priority 1994, dated 2002).
Several values for one entry are separate records, joined by “and”; a condition that tells them apart may be missing. Equal entries are not always repeated.

Tested on: herpes simplex virus (HSV) type 1
Assay: Inactivation of herpes simplex virus in infected MRC-5 cells by alcohols (Example 25); for HSV - CPE after 44 hours with the detecting cell-layer: key: 0: no CPE; 1: a few; 2: several; 3: all cells infected with HSV
Format: cell-based
Settings: for HSV - CPE after 44 hours with the detecting cell-layer: duplicate wells; for inactivation of herpes simplex virus (in words): HSV type 1 infected MRC-5 cells
Experimental: Ethanol is an accepted disinfectant for viruses with an envelope. The purpose of this study was to measure the inactivating effect of “short-chained alcohols” on virus-infected cells.
Four 96 well plates with confluent MRC-5 cell were infected with herpes simplex virus (HSV) type 1. After appearance of 50% cytopathic effect (CPE), the culture medium was removed, and rows of 12 wells were treated with 25 μl/well of the alcohols or buffer after the following scheme: The first row with undiluted, and the following with 96%, 90%, 80%, 70%, 60% and 50% alcohol, respectively—all dilutions performed in buffer (PBS). To the last row was added buffer. After 2, 4, 8, 16 and 32 min, respectively, two wells in each row were emptied and the cells overlaid with PBS. The plate was then frozen at —80° C. Afterwards the wells were seeded with a detection layer of MRC-5 cells and the plates were placed at 37° C. for 44 hours. Virus surviving the treatment with alcohol was detected by the appearance of CPE, characteristic for HSV in the detection monolayer.

[1] = alcohol undiluted, 2 min with alcohol

SMILES	HSV - CPE after 44 hours with the detecting cell-layer (50% alcohol in PBS, 2 min)	HSV - CPE after 44 hours with the detecting cell-layer (50% alcohol in PBS, 4 min)	HSV - CPE after 44 hours with the detecting cell-layer (50% alcohol in PBS, 8 min)	HSV - CPE after 44 hours with the detecting cell-layer (50% alcohol in PBS, 16 min)	HSV - CPE after 44 hours with the detecting cell-layer (50% alcohol in PBS, 32 min)	HSV - CPE after 44 hours with the detecting cell-layer (60% alcohol in PBS, 2 min)	HSV - CPE after 44 hours with the detecting cell-layer (60% alcohol in PBS, 4 min)	HSV - CPE after 44 hours with the detecting cell-layer (60% alcohol in PBS, 8 min)	HSV - CPE after 44 hours with the detecting cell-layer (60% alcohol in PBS, 16 min)	HSV - CPE after 44 hours with the detecting cell-layer (60% alcohol in PBS, 32 min)	HSV - CPE after 44 hours with the detecting cell-layer (70% alcohol in PBS, 2 min)	HSV - CPE after 44 hours with the detecting cell-layer (70% alcohol in PBS, 4 min)	HSV - CPE after 44 hours with the detecting cell-layer (70% alcohol in PBS, 8 min)	HSV - CPE after 44 hours with the detecting cell-layer (70% alcohol in PBS, 16 min)	HSV - CPE after 44 hours with the detecting cell-layer (70% alcohol in PBS, 32 min)	HSV - CPE after 44 hours with the detecting cell-layer (80% alcohol in PBS, 2 min)	HSV - CPE after 44 hours with the detecting cell-layer (80% alcohol in PBS, 4 min)	HSV - CPE after 44 hours with the detecting cell-layer (80% alcohol in PBS, 8 min)	HSV - CPE after 44 hours with the detecting cell-layer (80% alcohol in PBS, 16 min)	HSV - CPE after 44 hours with the detecting cell-layer (80% alcohol in PBS, 32 min)	further results
CCO [Ethanol]	3	3	3	3	3	3	3	3	3	3	3	3	3	3	3	2	2	2	2	2	HSV - CPE after 44 hours with the detecting cell-layer (90% alcohol in PBS, 2 min): 1; HSV - CPE after 44 hours with the detecting cell-layer (90% alcohol in PBS, 4 min): 1 and 0; HSV - CPE after 44 hours with the detecting cell-layer (90% alcohol in PBS, 8 min): 0; HSV - CPE after 44 hours with the detecting cell-layer (90% alcohol in PBS, 16 min): 0; HSV - CPE after 44 hours with the detecting cell-layer (90% alcohol in PBS, 32 min): 0; HSV - CPE after 44 hours with the detecting cell-layer (96% alcohol in PBS, 2 min): 1; HSV - CPE after 44 hours with the detecting cell-layer (96% alcohol in PBS, 4 min): 1 and 0; HSV - CPE after 44 hours with the detecting cell-layer (96% alcohol in PBS, 8 min): 0; HSV - CPE after 44 hours with the detecting cell-layer (96% alcohol in PBS, 16 min): 0; HSV - CPE after 44 hours with the detecting cell-layer (96% alcohol in PBS, 32 min): 0; inactivation of herpes simplex virus (in words): able to inactivate herpes simplex virus even intracellular virus; HSV - CPE after 44 hours with the detecting cell-layer [1]: 0; HSV - CPE after 44 hours with the detecting cell-layer (alcohol undiluted, 4 min): 0; HSV - CPE after 44 hours with the detecting cell-layer (alcohol undiluted, 8 min): 0; HSV - CPE after 44 hours with the detecting cell-layer (alcohol undiluted, 16 min): 0; HSV - CPE after 44 hours with the detecting cell-layer (alcohol undiluted, 32 min): 0
CC(C)O [Isopropanol]	3 and 2	3 and 2	3	3 and 2	3	2	1	2 and 1	2 and 3	3	2	1	1 and 0	1	0 and 2	1	0 and 1	1	0 and 1	1 and 3	HSV - CPE after 44 hours with the detecting cell-layer (90% alcohol in PBS, 2 min): 0 and 1; HSV - CPE after 44 hours with the detecting cell-layer (90% alcohol in PBS, 4 min): 0; HSV - CPE after 44 hours with the detecting cell-layer (90% alcohol in PBS, 8 min): 0; HSV - CPE after 44 hours with the detecting cell-layer (90% alcohol in PBS, 16 min): 0; HSV - CPE after 44 hours with the detecting cell-layer (90% alcohol in PBS, 32 min): 0; HSV - CPE after 44 hours with the detecting cell-layer (96% alcohol in PBS, 2 min): 0; HSV - CPE after 44 hours with the detecting cell-layer (96% alcohol in PBS, 4 min): 0; HSV - CPE after 44 hours with the detecting cell-layer (96% alcohol in PBS, 8 min): 0; HSV - CPE after 44 hours with the detecting cell-layer (96% alcohol in PBS, 16 min): 0; HSV - CPE after 44 hours with the detecting cell-layer (96% alcohol in PBS, 32 min): 0; inactivation of herpes simplex virus (in words): able to inactivate herpes simplex virus even intracellular virus; HSV - CPE after 44 hours with the detecting cell-layer [1]: 0; HSV - CPE after 44 hours with the detecting cell-layer (alcohol undiluted, 4 min): 0; HSV - CPE after 44 hours with the detecting cell-layer (alcohol undiluted, 8 min): 0; HSV - CPE after 44 hours with the detecting cell-layer (alcohol undiluted, 16 min): 0; HSV - CPE after 44 hours with the detecting cell-layer (alcohol undiluted, 32 min): 0
CO [Methanol]	1 and 0	1	1 and 2	2	1	1	0 and 1	1	0 and 1	1	1	1	1	1	0 and 1	1	0	1	0 and 1	1 and 0	HSV - CPE after 44 hours with the detecting cell-layer (90% alcohol in PBS, 2 min): 0; HSV - CPE after 44 hours with the detecting cell-layer (90% alcohol in PBS, 4 min): 0; HSV - CPE after 44 hours with the detecting cell-layer (90% alcohol in PBS, 8 min): 0 and 1; HSV - CPE after 44 hours with the detecting cell-layer (90% alcohol in PBS, 16 min): 1; HSV - CPE after 44 hours with the detecting cell-layer (90% alcohol in PBS, 32 min): 1 and 0; HSV - CPE after 44 hours with the detecting cell-layer (96% alcohol in PBS, 2 min): 0; HSV - CPE after 44 hours with the detecting cell-layer (96% alcohol in PBS, 4 min): 0; HSV - CPE after 44 hours with the detecting cell-layer (96% alcohol in PBS, 8 min): 0; HSV - CPE after 44 hours with the detecting cell-layer (96% alcohol in PBS, 16 min): 0 and 1; HSV - CPE after 44 hours with the detecting cell-layer (96% alcohol in PBS, 32 min): 1 and 0; inactivation of herpes simplex virus (in words): able to inactivate herpes simplex virus even intracellular virus; HSV - CPE after 44 hours with the detecting cell-layer [1]: 0; HSV - CPE after 44 hours with the detecting cell-layer (alcohol undiluted, 4 min): 0; HSV - CPE after 44 hours with the detecting cell-layer (alcohol undiluted, 8 min): 0; HSV - CPE after 44 hours with the detecting cell-layer (alcohol undiluted, 16 min): 0; HSV - CPE after 44 hours with the detecting cell-layer (alcohol undiluted, 32 min): 0
CCCO [Propanol]	2	3	3 and 2	3 and 2	1	1 and 2	2 and 1	1 and 0	1 and 0	0	1 and 2	1 and 0	1 and 0	0	0	0	0	0 and 1	0	0	HSV - CPE after 44 hours with the detecting cell-layer (90% alcohol in PBS, 2 min): 0; HSV - CPE after 44 hours with the detecting cell-layer (90% alcohol in PBS, 4 min): 0; HSV - CPE after 44 hours with the detecting cell-layer (90% alcohol in PBS, 8 min): 0; HSV - CPE after 44 hours with the detecting cell-layer (90% alcohol in PBS, 16 min): 0; HSV - CPE after 44 hours with the detecting cell-layer (90% alcohol in PBS, 32 min): 0; HSV - CPE after 44 hours with the detecting cell-layer (96% alcohol in PBS, 2 min): 0; HSV - CPE after 44 hours with the detecting cell-layer (96% alcohol in PBS, 4 min): 0; HSV - CPE after 44 hours with the detecting cell-layer (96% alcohol in PBS, 8 min): 0; HSV - CPE after 44 hours with the detecting cell-layer (96% alcohol in PBS, 16 min): 0; HSV - CPE after 44 hours with the detecting cell-layer (96% alcohol in PBS, 32 min): 0; inactivation of herpes simplex virus (in words): able to inactivate herpes simplex virus even intracellular virus; HSV - CPE after 44 hours with the detecting cell-layer [1]: 0; HSV - CPE after 44 hours with the detecting cell-layer (alcohol undiluted, 4 min): 0; HSV - CPE after 44 hours with the detecting cell-layer (alcohol undiluted, 8 min): 0; HSV - CPE after 44 hours with the detecting cell-layer (alcohol undiluted, 16 min): 0; HSV - CPE after 44 hours with the detecting cell-layer (alcohol undiluted, 32 min): 0
